Laboratory results as given in ChEMBL document CHEMBL5665443, “Enzyme Inhibitor Single Concentration assay results for EUbOPEN Chemogenomics Library” (2024).

Experiments:
[1] = target: T1, Single-strand selective monofunctional uracil DNA glycosylase (Homo sapiens) (UniProt Q53HV7); conditions: Hit No;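 further: enzymatic SMUG1 assay coupled with APE1, reading fluorescence at 594 nm released when a quenched double-stranded DNA oligonucleotide substrate is cleaved and separated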
T1 sequence (whole entry): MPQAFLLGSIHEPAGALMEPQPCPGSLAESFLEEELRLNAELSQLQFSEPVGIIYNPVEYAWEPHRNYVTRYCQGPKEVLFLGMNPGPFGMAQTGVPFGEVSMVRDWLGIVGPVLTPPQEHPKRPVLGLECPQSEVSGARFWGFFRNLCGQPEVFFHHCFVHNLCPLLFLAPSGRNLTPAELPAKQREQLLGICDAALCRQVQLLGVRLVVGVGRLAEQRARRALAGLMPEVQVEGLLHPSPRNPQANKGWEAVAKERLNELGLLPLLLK
Description: Inhibition of SMUG1 by quantifying inhibition of SMUG1-mediated cleavage and dissociation of quenched duplex DNA oligonucleotides, measured as fluorescence at 594 nm. To generate a functional strand incision and increase turn-over this assay is coupled to APE1.

[2] = target: T2, Endonuclease 8-like 2 (Homo sapiens) (UniProt Q969S2);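 further: fluorescence at 594 nm reports NEIL2 cutting and release of a quenched double-stranded DNA oligo substrate, reduced signal read as inhibition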
T2 sequence (whole entry): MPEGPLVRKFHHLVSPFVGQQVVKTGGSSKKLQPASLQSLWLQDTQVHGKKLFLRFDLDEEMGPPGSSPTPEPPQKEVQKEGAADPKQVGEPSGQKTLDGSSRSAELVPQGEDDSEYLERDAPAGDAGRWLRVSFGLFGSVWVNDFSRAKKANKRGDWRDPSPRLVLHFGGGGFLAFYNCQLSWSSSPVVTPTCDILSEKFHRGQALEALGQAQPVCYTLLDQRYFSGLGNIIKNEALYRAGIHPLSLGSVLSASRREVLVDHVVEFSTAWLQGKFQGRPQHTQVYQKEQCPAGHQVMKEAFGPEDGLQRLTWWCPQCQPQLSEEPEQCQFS
Description: Inhibition of NEIL2 by quantifying inhibition of NEIL2-mediated cleavage and dissociation of quenched duplex DNA oligonucleotides, measured as fluorescence at 594 nm.

[3] = target: Endonuclease 8-like 1 (Homo sapiens) (UniProt Q96FI4); conditions: Hit No;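 further: fluorescence at 594 nm from quenched duplex DNA oligonucleotides released by NEIL1 cleavage and strand separation, reported as reduction of this enzyme activity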
Sequence of Endonuclease 8-like 1 (Homo sapiens) (Q96FI4 whole entry, the tested form may be a part): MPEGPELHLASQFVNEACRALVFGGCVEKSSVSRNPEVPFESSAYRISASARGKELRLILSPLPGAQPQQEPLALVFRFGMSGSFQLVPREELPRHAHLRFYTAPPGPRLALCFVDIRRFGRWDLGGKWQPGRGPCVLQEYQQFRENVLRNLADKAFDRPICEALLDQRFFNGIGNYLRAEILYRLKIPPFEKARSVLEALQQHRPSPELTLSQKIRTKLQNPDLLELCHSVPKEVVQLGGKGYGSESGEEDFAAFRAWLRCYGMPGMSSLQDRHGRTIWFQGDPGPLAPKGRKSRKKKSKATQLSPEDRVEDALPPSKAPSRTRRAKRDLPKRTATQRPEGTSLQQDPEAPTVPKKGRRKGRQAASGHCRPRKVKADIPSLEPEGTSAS
Description: Inhibition of NEIL1 by quantifying inhibition of NEIL1-mediated cleavage and dissociation of quenched duplex DNA oligonucleotides, measured as fluorescence at 594 nm.

[4] = target: Methyl-CpG-binding domain protein 4 (Homo sapiens) (UniProt O95243); conditions: Hit No;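 further: MBD4 activity read as fluorescence at 594 nm from cleavage and release of a quenched duplex DNA oligonucleotide, with APE1 coupled to incise the strand and raise turnover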
Sequence of Methyl-CpG-binding domain protein 4 (Homo sapiens) (O95243 whole entry, the tested form may be a part): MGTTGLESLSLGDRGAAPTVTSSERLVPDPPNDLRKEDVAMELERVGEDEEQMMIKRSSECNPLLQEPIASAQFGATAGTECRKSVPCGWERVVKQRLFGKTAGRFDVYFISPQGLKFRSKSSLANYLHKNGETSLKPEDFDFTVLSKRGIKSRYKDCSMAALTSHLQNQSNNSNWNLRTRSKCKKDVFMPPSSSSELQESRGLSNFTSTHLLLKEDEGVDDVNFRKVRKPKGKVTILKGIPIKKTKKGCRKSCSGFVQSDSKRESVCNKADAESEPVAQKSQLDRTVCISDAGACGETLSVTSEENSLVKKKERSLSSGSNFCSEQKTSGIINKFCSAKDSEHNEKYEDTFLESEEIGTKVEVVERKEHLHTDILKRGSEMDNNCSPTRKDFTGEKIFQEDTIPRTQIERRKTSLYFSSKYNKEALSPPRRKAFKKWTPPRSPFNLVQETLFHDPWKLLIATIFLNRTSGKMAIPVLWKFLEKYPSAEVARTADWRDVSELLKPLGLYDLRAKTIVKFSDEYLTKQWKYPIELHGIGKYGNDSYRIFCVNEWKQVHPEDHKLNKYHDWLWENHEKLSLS
Description: Inhibition of MBD4 by quantifying inhibition of MBD4-mediated cleavage and dissociation of quenched duplex DNA oligonucleotides, measured as fluorescence at 594 nm. To generate a functional strand incision and increase turn-over this assay is coupled to APE1.

[5] = target: N-glycosylase/DNA lyase (Homo sapiens) (UniProt O15527); conditions: Hit No;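 further: OGG1 cleavage of a quenched duplex DNA oligonucleotide, coupled to APE1 for strand incision, read as fluorescence at 594 nm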
Sequence of N-glycosylase/DNA lyase (Homo sapiens) (O15527 whole entry): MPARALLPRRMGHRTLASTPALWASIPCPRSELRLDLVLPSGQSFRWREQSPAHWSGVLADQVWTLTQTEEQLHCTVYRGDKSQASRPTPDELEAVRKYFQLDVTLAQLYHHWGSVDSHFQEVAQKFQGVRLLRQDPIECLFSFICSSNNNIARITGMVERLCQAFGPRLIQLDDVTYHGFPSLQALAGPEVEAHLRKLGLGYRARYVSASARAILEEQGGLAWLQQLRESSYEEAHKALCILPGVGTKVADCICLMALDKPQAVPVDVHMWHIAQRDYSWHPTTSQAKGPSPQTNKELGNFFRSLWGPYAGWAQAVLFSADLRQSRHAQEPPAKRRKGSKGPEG
Description: Inhibition of OGG1 by quantifying inhibition of OGG1-mediated cleavage and dissociation of quenched duplex DNA oligonucleotides, measured as fluorescence at 594 nm. To generate a functional strand incision and increase turn-over this assay is coupled to APE1.

[6] = target: G/T mismatch-specific thymine DNA glycosylase (Homo sapiens) (UniProt Q13569); conditions: Hit No;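 further: human TDG cleavage of quenched duplex DNA oligonucleotides coupled to APE1, strand release read as fluorescence at 594 nm, inhibition of TDG activity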
Sequence of G/T mismatch-specific thymine DNA glycosylase (Homo sapiens) (Q13569 whole entry): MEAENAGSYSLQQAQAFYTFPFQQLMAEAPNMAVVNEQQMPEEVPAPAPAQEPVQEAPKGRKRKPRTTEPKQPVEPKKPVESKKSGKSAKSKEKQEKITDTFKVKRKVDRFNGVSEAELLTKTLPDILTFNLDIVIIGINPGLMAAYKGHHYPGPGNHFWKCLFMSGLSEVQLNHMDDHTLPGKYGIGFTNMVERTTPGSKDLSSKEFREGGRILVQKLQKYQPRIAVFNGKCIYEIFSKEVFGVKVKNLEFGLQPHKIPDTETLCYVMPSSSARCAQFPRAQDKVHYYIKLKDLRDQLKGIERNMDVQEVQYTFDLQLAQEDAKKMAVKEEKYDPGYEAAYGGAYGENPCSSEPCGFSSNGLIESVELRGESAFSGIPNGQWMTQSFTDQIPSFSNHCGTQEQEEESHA
Description: Inhibition of TDG by quantifying inhibition of TDG-mediated cleavage and dissociation of quenched duplex DNA oligonucleotides, measured as fluorescence at 594 nm. To generate a functional strand incision and increase turn-over this assay is coupled to APE1.

[7] = target: Uracil-DNA glycosylase (Homo sapiens) (UniProt P13051); conditions: Hit No;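 further: UNG excision on a quenched double-stranded DNA oligo probe, with APE1 added for strand incision and turnover, read as fluorescence at 594 nm as strands separate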
Sequence of Uracil-DNA glycosylase (Homo sapiens) (P13051 whole entry): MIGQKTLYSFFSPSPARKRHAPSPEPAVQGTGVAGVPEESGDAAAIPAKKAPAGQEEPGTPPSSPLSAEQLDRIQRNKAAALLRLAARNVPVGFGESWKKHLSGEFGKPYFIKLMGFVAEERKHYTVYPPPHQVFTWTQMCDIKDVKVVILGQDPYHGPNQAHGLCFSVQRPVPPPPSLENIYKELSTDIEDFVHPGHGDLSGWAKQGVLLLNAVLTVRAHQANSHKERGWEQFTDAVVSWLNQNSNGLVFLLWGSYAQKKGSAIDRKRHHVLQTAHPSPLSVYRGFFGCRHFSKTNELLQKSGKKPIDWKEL
Description: Inhibition of UNG by quantifying inhibition of UNG-mediated cleavage and dissociation of quenched duplex DNA oligonucleotides, measured as fluorescence at 594 nm. To generate a functional strand incision and increase turn-over this assay is coupled to APE1.

[8] = target: T3, Adenine DNA glycosylase (Homo sapiens) (UniProt Q9UIF7);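 further: human MUTYH activity read as 594 nm fluorescence from cleavage and release of a quenched DNA duplex, coupled with APE1 for strand incision, lower signal meaning inhibition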
T3 sequence (whole entry): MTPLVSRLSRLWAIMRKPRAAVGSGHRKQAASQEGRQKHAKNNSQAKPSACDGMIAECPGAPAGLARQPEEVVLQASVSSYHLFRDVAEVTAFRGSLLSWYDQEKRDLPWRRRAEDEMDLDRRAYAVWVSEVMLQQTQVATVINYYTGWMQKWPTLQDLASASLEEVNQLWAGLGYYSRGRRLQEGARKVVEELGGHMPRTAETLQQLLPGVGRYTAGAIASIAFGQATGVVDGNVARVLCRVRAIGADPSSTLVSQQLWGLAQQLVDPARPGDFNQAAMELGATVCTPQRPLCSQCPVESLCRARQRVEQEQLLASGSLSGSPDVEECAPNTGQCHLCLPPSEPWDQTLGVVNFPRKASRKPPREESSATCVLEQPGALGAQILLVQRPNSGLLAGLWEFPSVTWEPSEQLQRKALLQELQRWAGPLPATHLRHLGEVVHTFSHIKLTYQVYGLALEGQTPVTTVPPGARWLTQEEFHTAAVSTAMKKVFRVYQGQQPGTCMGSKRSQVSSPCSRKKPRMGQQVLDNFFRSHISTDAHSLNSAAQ
Description: Inhibition of MUTYH by quantifying inhibition of MUTYH-mediated cleavage and dissociation of quenched duplex DNA oligonucleotides, measured as fluorescence at 594 nm. To generate a functional strand incision and increase turn-over this assay is coupled to APE1.

[9] = target: T4, Endonuclease III-like protein 1 (Homo sapiens) (UniProt P78549);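 further: enzyme assay tracking NTHL1 cutting and release of a quenched double-stranded DNA oligo substrate, read as fluorescence at 594 nm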
T4 sequence (whole entry): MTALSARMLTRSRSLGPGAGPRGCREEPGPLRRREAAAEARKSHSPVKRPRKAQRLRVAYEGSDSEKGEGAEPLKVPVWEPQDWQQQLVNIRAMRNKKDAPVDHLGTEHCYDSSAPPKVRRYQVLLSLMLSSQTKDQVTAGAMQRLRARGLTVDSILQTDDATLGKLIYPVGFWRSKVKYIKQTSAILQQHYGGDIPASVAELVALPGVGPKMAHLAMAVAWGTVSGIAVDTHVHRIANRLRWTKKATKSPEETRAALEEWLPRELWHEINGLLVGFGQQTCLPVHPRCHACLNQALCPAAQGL
Description: Inhibition of NTHL1 by quantifying inhibition of NTHL1-mediated cleavage and dissociation of quenched duplex DNA oligonucleotides, measured as fluorescence at 594 nm.

[10] = Compound Concentration 10.0 uM, Hit No
[11] = Compound Concentration 1.0 uM, Hit No
[12] = Compound Concentration 1.0 uM, Hit Yes

| Compound | inhibition ([1]; Compound Concentration 10.0 uM) | inhibition [2, 10] | inhibition ([3]; Compound Concentration 10.0 uM) | inhibition ([4]; Compound Concentration 10.0 uM) | inhibition ([5]; Compound Concentration 10.0 uM) | inhibition ([6]; Compound Concentration 10.0 uM) | inhibition ([7]; Compound Concentration 10.0 uM) | inhibition [8, 10] | inhibition [9, 10] | inhibition ([1]; Compound Concentration 1.0 uM) | inhibition ([3]; Compound Concentration 1.0 uM) | inhibition ([4]; Compound Concentration 1.0 uM) | inhibition ([5]; Compound Concentration 1.0 uM) | inhibition ([6]; Compound Concentration 1.0 uM) | inhibition ([7]; Compound Concentration 1.0 uM) | inhibition [8, 11] | inhibition [9, 11] | also measured |
| --- | --- | --- | --- | --- | --- | --- | --- | --- | --- | --- | --- | --- | --- | --- | --- | --- | --- | --- |
| O=C(NOCC1CC1)c1ccc(F)c(F)c1Nc1ccc(I)cc1Cl | – | – | – | – | – | – | – | – | – | 8.89% | -9.77% | 41.9% | 1.82% | 57% | -3% | 4.86% | 15.4% | inhibition [2, 11]: -7.84% |
| CCOC(=O)Nc1ccc2c(c1)N(C(=O)CN(CC)CC)c1ccccc1CC2 | 15.8% | -9.67% | -8.02% | 65.5% | -1.34% | 97.9% | -1.75% | -4.04% | 4.63% | – | – | – | – | – | – | – | – | – |
| N#Cc1cnc(Nc2cc(NC[C@H]3CNCCO3)c(C(F)(F)F)cn2)cn1 | – | – | – | – | – | – | – | – | – | 34.2% | -5.15% | 13.8% | 7.47% | 53.2% | 6.29% | 2.62% | -0.61% | inhibition [2, 11]: -5.15% |
| Cc1cc(Nc2nccc(C)n2)cc(-c2cnc([C@@]3(O)CC[C@H](C(=O)O)C(C)(C)C3)s2)c1 | – | – | – | – | – | – | – | – | – | 13.6% | -7.58% | 25.6% | 9.85% | 40.8% | 2.21% | 3.53% | -4.56% | inhibition [2, 11]: -5.61% |
| O[C@]1(C(F)(F)F)CCCC[C@H]1Nc1ccc(F)cc1 | – | – | – | – | – | – | – | – | – | 15.6% | 3.35% | 54.7% | -4.39% | 46.6% | 2.12% | -4.37% | 4.63% | inhibition [2, 11]: 6.91% |
| NC1(c2ccc(-c3nc4c(O)ccnn4c3-c3ccccc3)cc2)CCC1 | 19.3% | -3.27% | -6.47% | 29% | – | 52.1% | -0.0214% | 14.3% | – | 19.9% | -7.26% | 76.1% | 10.4% | 59.1% | 7.66% | 23.6% | -7.86% | inhibition [2, 11]: -0.489% |
| C[C@@]1(Cc2ccc(C#N)cc2)C(=O)N(c2cc(Cl)cc(Cl)c2)c2ncc(C(=O)NC3(c4nc(C5CCC5)no4)CC3)n21 | 14.7% | -9.93% | -6.2% | 57.2% | 13.1% | 98.8% | 3.21% | -3.98% | -5.89% | – | – | – | – | – | – | – | – | – |
| Cc1c(N2CCCC2)nc2ccc(Br)cc2c1C(=O)NC[C@H](CCC(=O)O)c1ccccc1Cl | 12.3% | -0.744% | 3.19% | 69.2% | 31.5% | 54% | 5.08% | 22% | -1.95% | – | – | – | – | – | – | – | – | – |

More lines, main results first:

| inhibition ([1]; Compound Concentration 10.0 uM) | inhibition [2, 10] | inhibition ([3]; Compound Concentration 10.0 uM) | inhibition ([4]; Compound Concentration 10.0 uM) | inhibition ([5]; Compound Concentration 10.0 uM) | inhibition ([6]; Compound Concentration 10.0 uM) | inhibition ([7]; Compound Concentration 10.0 uM) | inhibition [8, 10] | inhibition [9, 10] | inhibition ([1]; Compound Concentration 1.0 uM) | inhibition ([3]; Compound Concentration 1.0 uM) | inhibition ([4]; Compound Concentration 1.0 uM) | inhibition ([5]; Compound Concentration 1.0 uM) | inhibition ([6]; Compound Concentration 1.0 uM) | inhibition ([7]; Compound Concentration 1.0 uM) | inhibition [8, 11] | inhibition [9, 11] | Compound | also measured |
| --- | --- | --- | --- | --- | --- | --- | --- | --- | --- | --- | --- | --- | --- | --- | --- | --- | --- | --- |
| 23.6% | -1.51% | -1.96% | 67.4% | 31.5% | 100% | 6.33% | 8.53% | -5.23% | – | – | – | – | – | – | – | – | Cc1cc(OC2CCS(=O)(=O)CC2)cc(C)c1-c1cccc(COc2ccc(C(=O)O)c(F)c2)c1 | – |
| -0.692% | -9.52% | -4.29% | 0.258% | -9.37% | 2.89% | -3.92% | -0.521% | -9.34% | – | – | – | – | – | – | – | – | N#Cc1cc(F)cc(-c2nc(-c3ccc(F)cn3)no2)c1 | – |
| 20.8% | 3.59% | -4.99% | 71.4% | 20.8% | 59.2% | 6.42% | 16.2% | -4.57% | – | – | – | – | – | – | – | – | CCO[C@H](COc1ccc(C(F)(F)F)cc1)CSc1ccc(OCC(=O)O)c(C)c1 | – |
| 17.6% | 0.531% | -9.68% | 79.3% | 9.87% | 47.5% | 6.75% | 3.45% | -3.26% | – | – | – | – | – | – | – | – | COCCc1ccc(-c2c(C)nc3c(N4CCOCC4)ccnn23)cn1 | – |
| 17.2% | -9.73% | -4.62% | -3.96% | 6.06% | 97.5% | -6.1% | 11.4% | 2.18% | – | – | – | – | – | – | – | – | O=C(O)c1ccc2c(c1)nc(Nc1cccc(Cl)c1)c1ccncc12 | – |
| 5.69% | 3.98% | 3.27% | -1.37% | -8.02% | 3.38% | 3.51% | 5.24% | -5.21% | – | – | – | – | – | – | – | – | CCNC(=O)N1CCCN(c2ccc(C(=O)NCCc3ccc(Cl)cc3Cl)cc2NC(=O)c2cccc(Cl)c2)CC1 | – |
| -2.21% | 2.76% | 8.25% | -3.22% | -6.13% | 6.82% | -7.49% | 17.8% | 2.66% | – | – | – | – | – | – | – | – | Nc1ncnc2c1ncn2[C@@H]1O[C@H](CO)[C@@H](O)[C@H]1O | – |
| 15% | 0.276% | -1.8% | 54.3% | -2.82% | 41.3% | 3.28% | 16.7% | -7.86% | – | – | – | – | – | – | – | – | Cc1c(N2CCNCC2)nc2ccc(Br)cc2c1C(=O)NC[C@H](CCC(=O)O)c1ccccc1Cl | – |
| – | – | – | – | – | – | – | – | – | 19.4% | -4.23% | 58.7% | 6.33% | 97.8% | 6.69% | – | 2.66% | CNCc1ccccc1-c1csc([C@H](C)Nc2nc(C)nc3cc(OC)c(OC)cc23)c1 | inhibition [2, 12]: 26.3%; inhibition [8, 12]: 36.2% |
| 19.3% | 4% | -4.75% | -4.72% | 3.23% | 35.8% | 3.59% | 4.56% | 7.06% | – | – | – | – | – | – | – | – | COc1ccccc1-c1cc(Nc2cccc(CS(N)(=O)=O)c2)ncn1 | – |
| 24.1% | 0.0213% | -2.11% | 65.1% | 7.85% | 58.9% | 6.97% | 15.1% | -3.26% | 16.1% | 1.19% | – | – | 29.4% | 1.91% | -2.97% | 2.88% | CC1=C(C#N)C(c2ccc3c(c2)c(NC(=O)c2ccccc2C)nn3C)C(C#N)=C(C)N1 | – |
| 26.1% | -0.744% | -4.08% | 74.6% | 23.7% | 64% | 20% | 34.5% | – | – | – | – | – | – | – | – | – | CO[C@H]1/C=C/O[C@@]2(C)Oc3c(C)c(O)c4c(O)c(c(/C=N/N5CCN(C)CC5)c(O)c4c3C2=O)NC(=O)/C(C)=C\C=C\[C@H](C)[C@H](O)[C@@H](C)[C@@H](O)[C@@H](C)[C@H](OC(C)=O)[C@@H]1C | inhibition ([9]; Compound Concentration 10.0 uM, Hit Yes): 27.6% |
